Assay results reported in article PMC7188855, “Nucleic acid recognition and antiviral activity of 1,4-substituted terphenyl compounds mimicking all faces of the HIV-1 Rev protein positively-charged α-helix” (Scientific Reports, 2020).
Read-outs that look alike come from different tables or passages of the source.

Experiments:
[1] = system: HIV-1 LTR promoter; assay: Transfection of pLTR-luc in MT-2 cells; settings: Human immunodeficiency virus 1, MT2, 48 h, read-out: EC50 transfection HIV-1 LTR
Description: To further assess the mechanism of antiviral action of the compounds, we checked whether they also interfered with the regulatory sequences of HTLV-1, a closely related retrovirus.
MT-2 cells were transfected with plasmids containing a luciferase reporter gene whose expression was under the control of the full length proviral HIV-1 (NL4.3-luc), the HIV-1 LTR promoter (pLTR-luc), or the HTLV-1 LTR promoter (pLTR(HTLV)-luc). After transfection, cells were treated with different compound concentrations, and activity quantification was performed 48 h later by determining luciferase activity in cell lysates as described[7],[21],[22].

[2] = molecular target: RRE subdomain IIB (IIBh); assay: Isothermal titration calorimetry with IIBh; type: binding, HIV-1; settings: 25 °C; 10 mM sodium phosphate pH 7.4, 0.1 mM EDTA; read-out: equilibrium dissociation constant, RRE subdomain IIB (ITC)
Description: (§1) These experiments were performed at 25 °C in MicroCal PEAQ-ITC or Nano-ITC microcalorimeters, and the data was subsequently analysed with MicroCal or Nanoanalyze software, respectively. All species were dissolved in aqueous solutions containing 10 mM sodium phosphate (pH 7.4 or 8.2) and 0.1 mM EDTA. For the IIBh:1a interaction the pH was 7.4, and 10 or 20 μM solutions of IIBh in the sample cell were titrated with 19 injections of 350 or 500 μM solutions of 1a. […]. […] For the DNAd:1a interaction, the pH was 8.2, and 800 or 900 μM solutions of 1a were titrated into 20 μM solutions of DNAd duplex in the sample cell with 19 injections of 2 µL. In both cases, the titration experiments were repeated three times, and the resulting association curves were fitted using a model with a single set of binding sites.

[3] = system: HIV-1 reverse transcription; assay: qPCR quantification of early and late HIV-1 reverse transcripts in MT-2 cells; type: cell-based; settings: MT-2 cells infected with NL4.3 for 5 hours
Description: MT-2 cells were pre-treated with two different concentrations of terphenyl molecules 1a, 1d or 3c, selected on the basis of the observed RRE-Rev IC50 and cellular EC50 values, and infected with NL4.3 wild-type HIV-1 for 5 hours. Total genomic DNA was isolated with a QIAamp DNA blood mini kit (Qiagen) and quantified by spectrophotometry. Early and late viral DNAs were quantified by qPCR as previously described. qPCR was performed in triplicate in a StepOne Real-Time PCR system using standard cycling conditions. Serial dilutions of genomic DNA from the 8E5 cell line, which contain a single integrated copy of HIV-1[43], were used as standard curve. The CCR5 gene was used as an endogenous control.

[4] = molecular target: DNA duplex DNAd; assay: Isothermal titration calorimetry with DNAd duplex; type: binding; settings: 25 °C, 10 mM sodium phosphate pH 8.2, 0.1 mM EDTA, read-out: equilibrium dissociation constant, related DNA duplex (ITC)
Description: as §1

[5] = molecular target: TARh hairpin containing the HIV-1 Tat-binding UCU bulge; assay: Fluorescence intensity binding to control TARh hairpin; settings: for Kd(TARh)/Kd(IIBh): low ionic strength, 10 mM sodium phosphate pH 6.6, uses Kd1
Text: To evaluate the specificity of subdomain IIB recognition, we measured binding to a control TARh hairpin containing the HIV-1 Tat-binding UCU bulge[23] (Fig. 1D). […] We further assessed specificity by duplicating the IIBh-23fl association experiments in the presence of a 10-fold molar excess of tRNA^Lys or a 26-base pair LTRd DNA duplex. The binding curves of the compounds were affected by the presence of competitive tRNA^Lys and to a lesser extent by LTRd (Figs. 4A, S4 and S5 and Tables 2 and S2).
These experiments measured association to IIBh-23fl or TARh-8fl RNA molecules labelled with fluorescein at extrahelical loop nucleotides U23 and U8, respectively (Fig. 1D), and were carried out under two different ionic conditions in a Victor X5 plate reader, using excitation and emission wavelengths of 485 and 520 nm, respectively. We also attempted to measure association to an alternative IIBh hairpin containing 2-aminopurine instead of adenine at unpaired loop IIB residue A19[21], but all terphenyls fluoresced at the excitation wavelength of this fluorophore. IIBh-23fl or TARh-8fl (at 100 nM concentration) was equilibrated for 5 minutes after each ligand addition in a buffer containing either 10 mM sodium phosphate pH 6.6 and 0.1 mM EDTA or 10 mM HEPES pH 7.5, 200 mM KCl and 2 mM MgCl2. In addition to the TARh specificity control, the RNA and DNA specificity of the IIBh interactions was assessed by duplicating the experiments in the presence of a 10-fold molar excess (1 μM) of either tRNA^Lys or DNA duplex LTRd. The equilibrium dissociation constants Kd were determined by fitting the fluorescence intensity curves with DYNAFIT[40]. We used one-site, two independent-sites and two interacting-sites binding models for all curves, and the best model was automatically selected by model discrimination analysis, except where indicated. The final graphs were plotted with Prism. All fluorescence intensity experiments were performed at least two times for each compound and condition.

[6] = system: RRE-Rev system (unspliced, single-spliced, multiple-spliced HIV-1 transcripts); assay: RT-qPCR analysis of HIV-1 RNA splicing in MT-2 cells; type: cell-based; settings: 24 and 48 hours post-infection, 100 μM; not statistically significant
Description: Given that splicing takes place in the nucleus, a blockage of the RRE-Rev system should reduce the levels of unspliced or single-spliced transcripts and increase the proportion of multiple-spliced species.
MT-2 cells were infected with a NL4.3 virus for 2 hours (10 ng/10^6 cells) and treated with two different concentrations of compounds 1a, 1d or 3c for 24, 48, 72 or 96 hours. The compound concentrations were chosen on the basis of the observed RRE-Rev IC50 and cellular EC50 values. Total cellular RNA was isolated, treated with DNase I and reverse-transcribed as previously described[21],[22]. Unspliced, single-spliced and multiple-spliced HIV-1 RNA transcripts were quantified by qPCR relative to a control obtained from untreated cells, using the primers described by Mohammadi et al.[48], and GAPDH as an endogenous control.

[7] = 10 mM sodium phosphate pH 6.6, 0.1 mM EDTA, read-out: Kd (TARh), one-site or first-site Kd1
[8] = higher ionic strength, 10 mM HEPES pH 7.5, 200 mM KCl, 2 mM MgCl2
[9] = higher ionic strength, 10 mM HEPES pH 7.5, 200 mM KCl, 2 mM MgCl2, read-out: Kd (TARh), Table S2

SMILES	EC50 [1]	Kd [2]	diminished levels of early viral DNA sequences [3]	Kd [4]	Kd [5, 7]	Kd(TARh)/Kd(IIBh), Table S2 [5, 8]	Kd [5, 9]	Kd(TARh)/Kd(IIBh) [5]	Kd ([5]; 10 mM sodium phosphate pH 6.6, 0.1 mM EDTA, two-site model, read-out: Kd (TARh), second-site Kd2 (in brackets))	pattern of unspliced, single-spliced and multiple-spliced viral transcripts [6]
COc1cc(CCN)c(-c2cc(C)c(-c3cc(CCN)c(OC)cc3CCN)cc2C)cc1CCN [Compound 1a]	7.2 µM	0.5 µM	25%	6.3 µM	12 µM	3.0	13 µM	12		
Cc1cc(-c2cc(CCN)ccc2CCN)c(C)cc1-c1cccc(CCN)c1 [Compound 3c]	3.32 µM		25%		78 µM		> 50 µM	12		
Cc1cc(-c2cc(CCN)ccc2CCN)c(C)cc1-c1cc(CCN)ccc1CCN [Compound 1d]	3.2 µM				22 µM	4.3	32 µM	25	22 µM	clearest patterns consistent with RRE-Rev inhibition
